System: Nannochloropsis sp.
Assay: Pulsed chlorate stress with non-destructive lipid extraction of algae culture
Type: cell-based
Conditions: chlorate stress 18 hours under nutrient-replete conditions, repeated cycles, compared to identical system with the cycle carried out only once
From the text: Nannochloropsis sp., a unicellular alga capable of producing large amounts of triacylglycerides, can be grown in f/2 medium with 1/3rd strength Instant Ocean under indoor lighting in 800 L raceway systems either kept moving with a submerged pump or paddlewheel. The algae are first grown under normal, nutrient replete conditions. Upon achieving a set concentration in culture sufficient for economical extraction (e.g., 1.0 g/L), an amount of chlorate sufficient to block nitrogen uptake by the Nannochloropsis is added. The Nannochloropsis culture is then allowed to grow under these conditions of nutrient assimilation inhibition for 18 hours. Twenty five percent of the algae culture is then removed and subjected to a non-destructive extraction process, while ammonia is added to the remaining in an amount sufficient to renew normal nitrogen uptake.
The removed portion of the culture is then mixed with dodecane or undecane or a mixture of the two for 15 minutes, during which sonication is applied for 2 seconds at 40 kHz. The mixture is partitioned with the upper solvent level removed by decanting, and the lower aqueous layer is then returned to the original algae culture, in which non-stressed growth has resumed as a result of the addition of ammonia. […]

[O-][Cl+2]([O-])O [chlorate]
levels of lipid obtained during subsequent cycles: higher levels of lipid
